Data as given in patent US8741875B2, “Compounds as receptor modulators with therapeutic utility” (Allergan, Inc., priority 2009, dated 2014).

biological target: T1, human S1P1 receptor (Homo sapiens, UniProt P21453); experiment: GTP γ35S binding assay for S1P1 activity; format: biochemical; settings: membranes, 30 min at 25° C., read-out: S1P1 EC50 (Activity potency: S1P1 receptor from GTP γ35S)
T1 construct: expressed in transfected cells; membranes used
Protocol: Compounds were tested for S1P1 activity using the GTP γ^35S binding assay. These compounds may be assessed for their ability to activate or block activation of the human S1P1 receptor in cells stably expressing the S1P1 receptor.
GTP γ^35S binding was measured in the medium containing (mM) HEPES 25, pH 7.4, MgCl2 10, NaCl 100, dithitothreitol 0.5, digitonin 0.003%, 0.2 nM GTP γ^35S, and 5 μg membrane protein in a volume of 150 μl. Test compounds were included in the concentration range from 0.08 to 5,000 nM unless indicated otherwise. Membranes were incubated with 100 μM 5′-adenylylimmidodiphosphate for 30 min, and subsequently with 10 μM GDP for 10 min on ice. Drug solutions and membrane were mixed, and then reactions were initiated by adding GTP γ^35S and continued for 30 min at 25° C. Reaction mixtures were filtered over Whatman GF/B filters under vacuum, and washed three times with 3 mL of ice-cold buffer (HEPES 25, pH7.4, MgCl2 10 and NaCl 100). Filters were dried and mixed with scintillant, and counted for ^35S activity using a β-counter. Agonist-induced GTP γ^35S binding was obtained by subtracting that in the absence of agonist. Binding data were analyzed using a non-linear regression method. In case of antagonist assay, the reaction mixture contained 10 nM S1P in the presence of test antagonist at concentrations ranging from 0.08 to 5000 nM.

T1 sequence (P21453 whole entry): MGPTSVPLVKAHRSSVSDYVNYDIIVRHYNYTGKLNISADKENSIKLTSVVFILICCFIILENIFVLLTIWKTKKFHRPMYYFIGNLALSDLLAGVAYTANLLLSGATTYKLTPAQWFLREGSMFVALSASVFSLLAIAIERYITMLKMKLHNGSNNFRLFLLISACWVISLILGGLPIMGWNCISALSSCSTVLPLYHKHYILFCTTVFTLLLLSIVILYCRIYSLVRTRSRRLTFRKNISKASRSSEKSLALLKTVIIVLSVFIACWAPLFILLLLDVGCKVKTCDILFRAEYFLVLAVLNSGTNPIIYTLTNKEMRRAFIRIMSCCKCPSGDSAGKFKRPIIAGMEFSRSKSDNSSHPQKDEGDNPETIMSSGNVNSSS

SMILES | EC50
O=P(O)(O)CCCNCc1ccc(OCCCCCc2ccccc2)c(-c2ccco2)c1 [Compound 1, [3-({3-(2-furyl)-4-[(5-phenylpentyl)oxy]benzyl}amino)propyl]phosphonic acid] | 0.9 nM
O=P(O)(O)CCCNCc1ccc(OCCCCCc2ccccc2)c(-c2ncco2)c1 [Compound 2, [3-({3-(1,3-oxazol-2-yl)-4-[(5-phenylpentyl)oxy]benzyl}amino)propyl]phosphonic acid] | 11.9 nM
O=P(O)(O)CCCNCc1ccc(OCCCCCc2ccccc2)c(-c2nccs2)c1 [Compound 3, [3-({4-[(5-phenylpentyl)oxy]-3-(1,3-thiazol-2-yl)benzyl}amino)propyl]phosphonic acid] | 2 nM
O=P(O)(O)CCCNCc1ccc(OCCCCCc2ccccc2)c(-c2ccoc2)c1 [Compound 4, [3-({3-(3-furyl)-4-[(5-phenylpentyl)oxy]benzyl}amino)propyl]phosphonic acid] | 0.6 nM
O=P(O)(O)CCCNCc1ccc(OCCCCCc2ccccc2)c(-c2ccsc2)c1 [Compound 5, [3-({4-[(5-phenylpentyl)oxy]-3-(3-thienyl)benzyl}amino)propyl]phosphonic acid] | 3.3 nM
CC(C)Cc1ccc(CCCOc2ccc(CNCCCP(=O)(O)O)cc2-c2cccs2)cc1 [Compound 7, [3-({4-[3-(4-isobutylphenyl)propoxy]-3-(2-thienyl)benzyl}amino)propyl]phosphonic acid] | 14.9 nM
O=P(O)(O)CCCNCc1ccc(OCCCCCc2ccccc2)c(C2=CCCC2)c1 [Compound 8, [3-({3-cyclopent-1-en-1-yl-4-[(5-phenylpentyl)oxy]benzyl}amino)propyl]phosphonic acid] | 3.4 nM
O=P(O)(O)OCCNCc1ccc(OCCCCCc2ccccc2)c(-c2cccs2)c1 [Compound 9, 2-({4-[(5-phenylpentyl)oxy]-3-(2-thienyl)benzyl}amino)ethyl dihydrogen phosphate] | 1.5 nM
O=S(=O)(O)CCCNCc1ccc(OCCCCCc2ccccc2)c(-c2cccs2)c1 [Compound 10, 3-({4-[(5-phenylpentyl)oxy]-3-(2-thienyl)benzyl}amino)propane-1-sulfonic acid] | 10.1 nM
CP(=O)(O)CCCNCc1ccc(OCCCCCc2ccccc2)c(-c2cccs2)c1 [Compound 11, methyl[3-({4-[(5-phenylpentyl)oxy]-3-(2-thienyl)benzyl}amino)propyl]phosphinic acid] | 23 nM
CC(CO)NCc1ccc(OCCCCCc2ccccc2)c(-c2cccs2)c1 (stereo not shown) [Compound 12, 2-({4-[(5-phenylpentyl)oxy]-3-(2-thienyl)benzyl}amino)propan-1-ol] | 241 nM
OCC(CO)NCc1ccc(OCCCCCc2ccccc2)c(-c2cccs2)c1 [Compound 13, 2-({4-[(5-phenylpentyl)oxy]-3-(2-thienyl)benzyl}amino)propane-1,3-diol] | 714 nM
O=P(O)(O)CCCNCc1ccc(OCCCCCc2ccccc2)c(-c2ccoc2)n1 [Compound 14, {3-[({6-(3-furyl)-5-[(5-phenylpentyl)oxy]pyridin-2-yl}methyl)amino]propyl}phosphonic acid] | 1 nM
O=P(O)(O)CCCNCc1ccc(OCCCCCc2ccccc2)c(-c2cccs2)n1 [Compound 15, {3-[({5-[(5-phenylpentyl)oxy]-6-(2-thienyl)pyridin-2-yl}methyl)amino]propyl}phosphonic acid] | 0.77 nM
CCCCCCCCCOc1ccc(CNCCCP(=O)(O)O)cc1-c1cccs1 [Compound 16, (3-{[4-(nonyloxy)-3-(2-thienyl)benzyl]amino}propyl)phosphonic acid] | 517 nM
CCCCCCCCCCOc1ccc(CNCCCP(=O)(O)O)cc1-c1cccs1 [Compound 17, (3-{[4-(decyloxy)-3-(2-thienyl)benzyl]amino}propyl)phosphonic acid] | 294 nM
O=P(O)(O)CCCNCc1ccc(OCCCCCc2ccccc2)c(-c2ccc(F)s2)c1 [Compound 18] | 2 nM
COc1cccc(CCCCCOc2ccc(CNCCCP(=O)(O)O)cc2-c2cccs2)c1 [Compound 19, (3-{[4-{[5-(3-methoxyphenyl)pentyl]oxy}-3-(2-thienyl)benzyl]amino}propyl)phosphonic acid] | 1120 nM
COc1ccc(CCCCCOc2ccc(CNCCCP(=O)(O)O)cc2-c2cccs2)cc1 [Compound 20, (3-{[4-{[5-(4-methoxyphenyl)pentyl]oxy}-3-(2-thienyl)benzyl]amino}propyl)phosphonic acid] | 48.6 nM

SMILES | EC50
O=P(O)(O)CCCNCc1ccc(OCCCCCc2ccc(F)cc2)c(-c2cccs2)c1 [Compound 21, (3-{[4-{[5-(4-fluorophenyl)pentyl]oxy}-3-(2-thienyl)benzyl]amino}propyl)phosphonic acid] | 19.7 nM
O=P(O)(O)CCCNCc1ccc(OCCCCCc2cccc(C(F)(F)F)c2)c(-c2ccco2)c1 [Compound 22, (3-{[3-(2-furyl)-4-({5-[3-(trifluoromethyl)phenyl]pentyl}oxy)benzyl]amino}propyl)phosphonic acid] | 65.7 nM
COc1cccc(CCCCCOc2ccc(CNCCCP(=O)(O)O)cc2-c2ccco2)c1 [Compound 23, (3-{[3-(2-furyl)-4-{[5-(3-methoxyphenyl)pentyl]oxy}benzyl]amino}propyl)phosphonic acid] | 240 nM
O=P(O)(O)CCCNCc1ccc(OCCCCCc2ccc(F)cc2)c(-c2ccco2)c1 [Compound 24, (3-{[4-{[5-(4-fluorophenyl)pentyl]oxy}-3-(2-furyl)benzyl]amino}propyl)phosphonic acid] | 0.98 nM
O=P(O)(O)CCCNCc1ccc(OCCCCc2ccc(F)cc2)c(-c2cccs2)c1 [Compound 25, [3-({4-[4-(4-fluorophenyl)butoxy]-3-(2-thienyl)benzyl}amino)propyl]phosphonic acid] | 67.5 nM
O=P(O)(O)CCCNCc1ccc(OCCCCc2ccc(F)cc2)c(-c2ccco2)c1 [Compound 26, [3-({4-[4-(4-fluorophenyl)butoxy]-3-(2-furyl)benzyl}amino)propyl]phosphonic acid] | 98.9 nM
COc1ccc(CCCCCOc2ccc(CNCCCP(=O)(O)O)cc2-c2ccco2)cc1F [Compound 27, (3-{[4-{[5-(3-fluoro-4-methoxyphenyl)pentyl]oxy}-3-(2-furyl)benzyl]amino}propyl)phosphonic acid] | 7 nM
COc1ccc(CCCCCOc2ccc(CNCCCP(=O)(O)O)cc2-c2cccs2)cc1F [Compound 28, (3-{[4-{[5-(3-fluoro-4-methoxyphenyl)pentyl]oxy}-3-(2-thienyl)benzyl]amino}propyl)phosphonic acid] | 1.9 nM
O=P(O)(O)CCCNCc1ccc(OCCCCCc2ccc(Cl)cc2)c(-c2ccco2)c1 [Compound 29, (3-{[4-{[5-(4-chlorophenyl)pentyl]oxy}-3-(2-furyl)benzyl]amino}propyl)phosphonic acid] | 5.7 nM
O=P(O)(O)CCCNCc1ccc(OCCCCCc2ccc(Cl)cc2)c(-c2cccs2)c1 [Compound 30, (3-{[4-{[5-(4-chlorophenyl)pentyl]oxy}-3-(2-thienyl)benzyl]amino}propyl)phosphonic acid] | 8 nM
COc1ccc(CCCCCOc2ccc(CNCCCP(=O)(O)O)cc2-c2ccco2)cc1Cl [Compound 31, (3-{[4-{[5-(3-chloro-4-methoxyphenyl)pentyl]oxy}-3-(2-furyl)benzyl]amino}propyl)phosphonic acid] | 8.4 nM
COc1ccc(CCCCCOc2ccc(CNCCCP(=O)(O)O)cc2-c2cccs2)cc1Cl [Compound 32, (3-{[4-{[5-(3-chloro-4-methoxyphenyl)pentyl]oxy}-3-(2-thienyl)benzyl]amino}propyl)phosphonic acid] | 6.5 nM
COc1ccc(CCCCCOc2ccc(CNCCCP(=O)(O)O)cc2-c2ccco2)cc1 [Compound 33, (3-{[3-(2-furyl)-4-{[5-(4-methoxyphenyl)pentyl]oxy}benzyl]amino}propyl)phosphonic acid] | 7.1 nM
COc1cccc(CCCCCOc2ccc(CNCCCP(=O)(O)O)cc2-c2ccoc2)c1 [Compound 34, (3-{[3-(3-furyl)-4-{[5-(3-methoxyphenyl)pentyl]oxy}benzyl]amino}propyl)phosphonic acid] | 12.5 nM
O=P(O)(O)CCCNCc1ccc(OCCCCCc2ccccc2)c(-c2cocn2)c1 [Compound 35, [3-({3-(1,3-oxazol-4-yl)-4-[(5-phenylpentyl)oxy]benzyl}amino)propyl]phosphonic acid] | 54.1 nM
CC(CCNCc1ccc(OCCCCCc2ccccc2)c(-c2ccco2)c1)P(=O)(O)O (stereo not shown) [Compound 36, [3-({3-(2-furyl)-4-[(5-phenylpentyl)oxy]benzyl}amino)-1-methylpropyl]phosphonic acid] | 18.5 nM
O=[PH](O)CCCNCc1ccc(OCCCCCc2ccccc2)c(-c2cccs2)c1 [Compound 37, [3-({4-[(5-phenylpentyl)oxy]-3-(2-thienyl)benzyl}amino)propyl]phosphinic acid] | 52.6 nM
O=P(O)(O)CCCNCc1ccc(OCCCCCc2ccccc2)c(-c2ccc(F)o2)c1 [Compound 38, [3-({3-(5-fluoro-2-furyl)-4-[(5-phenylpentyl)oxy]benzyl}amino)propyl]phosphonic acid] | 1.9 nM
